Measurements published in PubChem BioAssay AID2060361 (Molecular Pharmacology Branch, DTP, NCI, 2025).

Tested on: 463943-066-T-J2-PDC tumor spheroids with HUVEC/MSC, viability
Experiment: Anticancer human tumor 463943-066-T-J2-PDC patient-derived colon adenocarcinoma cell line growth inhibition [TAK]
Conditions: for IC50: curve of first compound; for viability, T/C: stronger effect = lower value; active means viability on the fitted dose curve at most 10% of control; inactive means the rest
Excerpt: Combinatorial screen of targeted agents with TAK-243 and ipatasertib in multi-cell type tumor spheroids
A high-throughput screen of multi-cell type tumor spheroids was designed to identify active combinations of targeted small molecules and TAK-243 or ipatasertib. Complex spheroids include a stromal component modeled by human endothelial cells (HUVEC) and fibroblasts modeled by human mesenchymal stem cells (MSCs). The concentration ranges selected for each drug and investigational agent were based upon clinically achievable concentrations if the clinical Cmax of the agent was known.
Compounds. The drugs and investigational agents: TAK-243 (785004), ipatasertib (767898), everolimus (733504), selumetinib (741078), bortezomib (756655), trametinib (758246), ixazomib (758254), vemurafenib (761431), dabrafenib (764134), sapanisertib (764658), alpelisib (765974), and copanlisib (816437), were obtained from the National Cancer Institute (NCI) Developmental Therapeutics Program Chemical Repository. The FDA-approved anticancer drug set is available from the NCI Developmental Therapeutics Program. […] The stock solutions were prepared in dimethyl sulfoxide (DMSO, Sigma-Aldrich, St. Louis, MO, cat. D2650) at 800-fold the tested concentration and stored at -70 degrees C prior to their use. All drugs and investigational agents were tested over a range starting from a high concentration at or near the clinical Cmax and decreasing in half-log increments. If the clinical Cmax for an agent had not been determined, the highest concentration tested was 10 microM.
NCI60 Cell Culture. NCI60 cell lines were obtained from the NCI Developmental Therapeutics Program Tumor Repository. For each lot of cells, the Repository performed Applied Biosystems AmpFLSTR Identifiler testing with PCR amplification to confirm consistency with the published Identifier STR profile for each cell line. Cells were kept in continuous culture for no more than 20 passages. The optimal seeding densities for each of the cell lines at each time point assessed were determined prior to performing the concentration response studies. Briefly, the NCI60 human tumor lines were grown as monolayers in RPMI 1640 medium supplemented with 10% FBS and 2 mmol/L L-glutamine.
An additional 2 lines were from the NCI60 cell line panel including melanomas, MALME-3M and SK-MEL-2. Pooled donor human umbilical vein endothelial cells (HUVEC, Lonza, cat. CC-2519) and human mesenchymal stem cells (hMSC, Lonza, cat. PT-2501) were purchased from Lonza (Walkersville, MD).
PDMR cell lines were grown in complete medium (DC medium): Dulbecco's modified Eagle's medium (DMEM)/F12 supplemented with 5% fetal bovine serum (FBS), 2 mM L-glutamine, 100 U/mL penicillin and 100 µg/ml streptomycin, 0.4 µg/ml hydrocortisone, 10 ng/ml epidermal growth factor (EGF) recombinant human protein, 24 µg/mL adenine, and 0.1 mg/mL primocin. During culture from frozen stock vials, PDMR cells were cultured in the same medium containing 10 µM Y-27632 (see Table 3). The PDCs were cultured in complete DMEM/F12 media without 10 microM Y-27632 dihydrochloride for at least two passages prior to the screen. The pooled donor HUVEC and hMSC were cultured in endothelial cell growth medium 2 (PromoCell, Heidelberg, Germany, cat. C-22011) and mesenchymal stem cell growth medium 2 (PromoCell, cat. C-28009), respectively. For all experiments, HUVEC and hMSC were used at passages </=5.
For the pre-screen, cell seeding densities were determined from a titration spanning the range from 5,000 to 313 cells per well. The mct-spheroids including 60% malignant cells, 25% HUVEC and 15% MSC dispensed as a mixture into U-bottom Ultra-Low Attachment 384-well plates (Corning, NY)
High-throughput Drug Combination Screening.
Prior to their inoculation into 384-well plates, malignant cells, HUVEC, and hMSC were removed from T flasks using TrypLE express (Thermo Fisher Scientific, cat. 12605036) and harvested by centrifugation for 5 min at 233 x g. […]

[1] = second compound 0.3 µM, first compound 0.00949 µM
[2] = second compound 0.3 µM, first compound 0.03 µM
[3] = second compound 0.949 µM, first compound 0.00949 µM
[4] = second compound 0.949 µM, first compound 0.03 µM
[5] = second compound 3 µM, first compound 0.00949 µM
[6] = second compound 3 µM, first compound 0.03 µM
[7] = second compound 9.49 µM, first compound 0.00949 µM
[8] = second compound 9.49 µM, first compound 0.03 µM
[9] = second compound 30 µM, first compound 0.00949 µM
[10] = second compound 30 µM, first compound 0.03 µM
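Further: spheroids exposed to drugs for seven days.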

CC(=O)Nc1cccc(-n2c(=O)n(C3CC3)c(=O)c3c(Nc4ccc(I)cc4F)n(C)c(=O)c(C)c32)c1 + CC(C)NCC(C(=O)N1CCN(c2ncnc3c2C(C)CC3O)CC1)c1ccc(Cl)cc1
inactive: viability, T/C (second compound 0.3 µM, first compound 94.9 pM) 98.7% | viability, T/C (second compound 0.3 µM, first compound 0.0003 µM) 94.3% | viability, T/C (second compound 0.3 µM, first compound 0.000949 µM) 83.2% | viability, T/C (second compound 0.3 µM, first compound 0.003 µM) 82.2% | viability, T/C [1] 71.5% | viability, T/C [2] 65.2% | viability, T/C (second compound 0.949 µM, first compound 94.9 pM) 95.2% | viability, T/C (second compound 0.949 µM, first compound 0.0003 µM) 91.5% | viability, T/C (second compound 0.949 µM, first compound 0.000949 µM) 84.1% | viability, T/C (second compound 0.949 µM, first compound 0.003 µM) 83.9% | viability, T/C [3] 77.2% | viability, T/C [4] 61.2% | viability, T/C (second compound 3 µM, first compound 94.9 pM) 96.1% | viability, T/C (second compound 3 µM, first compound 0.0003 µM) 96.3% | viability, T/C (second compound 3 µM, first compound 0.000949 µM) 87.2% | viability, T/C (second compound 3 µM, first compound 0.003 µM) 84.4% | viability, T/C [5] 72% | viability, T/C [6] 57% | viability, T/C (second compound 9.49 µM, first compound 94.9 pM) 88% | viability, T/C (second compound 9.49 µM, first compound 0.0003 µM) 99% | viability, T/C (second compound 9.49 µM, first compound 0.000949 µM) 90.3% | viability, T/C (second compound 9.49 µM, first compound 0.003 µM) 79.5% | viability, T/C [7] 72.3% | viability, T/C [8] 62.7% | viability, T/C (second compound 30 µM, first compound 94.9 pM) 91.4% | viability, T/C (second compound 30 µM, first compound 0.0003 µM) 90.3% | viability, T/C (second compound 30 µM, first compound 0.000949 µM) 87.1% | viability, T/C (second compound 30 µM, first compound 0.003 µM) 80.6% | viability, T/C [9] 69.1% | viability, T/C [10] 53.6%
> 30 nM: IC50 (second compound 0.3 µM) | IC50 (second compound 0.949 µM) | IC50 (second compound 3 µM) | IC50 (second compound 9.49 µM) | IC50 (second compound 30 µM)

CC(C)CC(NC(=O)C(Cc1ccccc1)NC(=O)c1cnccn1)B(O)O (stereo not given) + CC(C)NCC(C(=O)N1CCN(c2ncnc3c2C(C)CC3O)CC1)c1ccc(Cl)cc1
> 10 nM: IC50 (second compound 0.3 µM) | IC50 (second compound 0.949 µM) | IC50 (second compound 3 µM) | IC50 (second compound 9.49 µM) | IC50 (second compound 30 µM)
inactive: viability, T/C (second compound 0.3 µM, first compound 31.6 pM) 98.3% | viability, T/C (second compound 0.3 µM, first compound 0.0001 µM) 99.2% | viability, T/C (second compound 0.3 µM, first compound 0.000316 µM) 92.3% | viability, T/C (second compound 0.3 µM, first compound 0.001 µM) 91.4% | viability, T/C (second compound 0.3 µM, first compound 0.00316 µM) 93.1% | viability, T/C (second compound 0.3 µM, first compound 0.01 µM) 84.1% | viability, T/C (second compound 0.949 µM, first compound 31.6 pM) 89.1% | viability, T/C (second compound 0.949 µM, first compound 0.0001 µM) 81.8% | viability, T/C (second compound 0.949 µM, first compound 0.000316 µM) 89.4% | viability, T/C (second compound 0.949 µM, first compound 0.001 µM) 84.3% | viability, T/C (second compound 0.949 µM, first compound 0.00316 µM) 85.2% | viability, T/C (second compound 0.949 µM, first compound 0.01 µM) 77.3% | viability, T/C (second compound 3 µM, first compound 31.6 pM) 90.5% | viability, T/C (second compound 3 µM, first compound 0.0001 µM) 96% | viability, T/C (second compound 3 µM, first compound 0.000316 µM) 97.3% | viability, T/C (second compound 3 µM, first compound 0.001 µM) 94.4% | viability, T/C (second compound 3 µM, first compound 0.00316 µM) 78.5% | viability, T/C (second compound 3 µM, first compound 0.01 µM) 81.8% | viability, T/C (second compound 9.49 µM, first compound 31.6 pM) 85.4% | viability, T/C (second compound 9.49 µM, first compound 0.0001 µM) 95.5% | viability, T/C (second compound 9.49 µM, first compound 0.000316 µM) 82.7% | viability, T/C (second compound 9.49 µM, first compound 0.001 µM) 88.9% | viability, T/C (second compound 9.49 µM, first compound 0.00316 µM) 82.7% | viability, T/C (second compound 9.49 µM, first compound 0.01 µM) 77% | viability, T/C (second compound 30 µM, first compound 31.6 pM) 88.2% | viability, T/C (second compound 30 µM, first compound 0.0001 µM) 85.3% | viability, T/C (second compound 30 µM, first compound 0.000316 µM) 91.4% | viability, T/C (second compound 30 µM, first compound 0.001 µM) 88.2% | viability, T/C (second compound 30 µM, first compound 0.00316 µM) 88.7% | viability, T/C (second compound 30 µM, first compound 0.01 µM) 70.2%

Cn1cnc2c(F)c(Nc3ccc(Br)cc3Cl)c(C(=O)NOCCO)cc21 + CC(C)NCC(C(=O)N1CCN(c2ncnc3c2C(C)CC3O)CC1)c1ccc(Cl)cc1
inactive: viability, T/C [1] 102% | viability, T/C [2] 115% | viability, T/C (second compound 0.3 µM, first compound 0.0949 µM) 92.8% | viability, T/C (second compound 0.3 µM, first compound 0.3 µM) 78% | viability, T/C (second compound 0.3 µM, first compound 0.949 µM) 72.6% | viability, T/C (second compound 0.3 µM, first compound 3 µM) 54.6% | viability, T/C [3] 101% | viability, T/C [4] 105% | viability, T/C (second compound 0.949 µM, first compound 0.0949 µM) 77.6% | viability, T/C (second compound 0.949 µM, first compound 0.3 µM) 69.2% | viability, T/C (second compound 0.949 µM, first compound 0.949 µM) 63.9% | viability, T/C (second compound 0.949 µM, first compound 3 µM) 62.3% | viability, T/C [5] 90.4% | viability, T/C [6] 103% | viability, T/C (second compound 3 µM, first compound 0.0949 µM) 85.2% | viability, T/C (second compound 3 µM, first compound 0.3 µM) 76.2% | viability, T/C (second compound 3 µM, first compound 0.949 µM) 70.3% | viability, T/C (second compound 3 µM, first compound 3 µM) 58.4% | viability, T/C [7] 102% | viability, T/C [8] 94.6% | viability, T/C (second compound 9.49 µM, first compound 0.0949 µM) 88.5% | viability, T/C (second compound 9.49 µM, first compound 0.3 µM) 79.8% | viability, T/C (second compound 9.49 µM, first compound 0.949 µM) 70.2% | viability, T/C (second compound 9.49 µM, first compound 3 µM) 67.1% | viability, T/C [9] 103% | viability, T/C [10] 92.2% | viability, T/C (second compound 30 µM, first compound 0.0949 µM) 88.6% | viability, T/C (second compound 30 µM, first compound 0.3 µM) 71.7% | viability, T/C (second compound 30 µM, first compound 0.949 µM) 71.3% | viability, T/C (second compound 30 µM, first compound 3 µM) 60.1%
> 3000 nM: IC50 (second compound 0.3 µM) | IC50 (second compound 0.949 µM) | IC50 (second compound 3 µM) | IC50 (second compound 9.49 µM) | IC50 (second compound 30 µM)
